For twelve compounds, solubility results are on record in the OPERA property sets (Mansouri et al. 2018).

For orientation: solubility means the dissolved amount per volume that the medium holds. Read a high solubility as a readily soluble substance.

Structures are written as SMILES. ≈ marks a conversion by molar mass, not a printed value.

For this series the following is noted: 25 °C.
`C=CC` showed a solubility of 4750 µM (≈ 200 µg/mL).
With `C=CC=C` the figure was 13600 µM (≈ 735 µg/mL); with `CC1CCCC1`, 499 µM (≈ 42 µg/mL); with `Cc1ccc(C)c(C)c1`, 474 µM (≈ 57 µg/mL).
Consider `C1CCCCC1`, for which the solubility stood at 654 µM (≈ 55 µg/mL).
With `C1CCCCCCC1` the figure was 70.4 µM (≈ 7.9 µg/mL); with `C=C`, 4670 µM (≈ 131 µg/mL); with `CCCC`, 1050 µM (≈ 61.2 µg/mL).
As for `C#CC`, the solubility was 90800 µM (≈ 3640 µg/mL).
In the case of `C=CC(=C)C` it was 9340 µM (≈ 636 µg/mL); in that of `CCCCCC`, 110 µM (≈ 9.5 µg/mL); in that of `C=CCC`, 3940 µM (≈ 221 µg/mL).
